This note sets out measurements from patent US8207091B2, “Methods for improving growth and crop productivity of plants by adjusting plant hormone levels, ratios and/or co-factors” (Stoller Enterprises, Inc., priority 2004, dated 2012).

Molecules are shown by their SMILES.

Holding throughout (assay type): in vivo
Assay [1] relates to radish plants. The assay can be described thus: Radish shoot height, treated twice at four day intervals. The conditions noted are these: IAA and kinetin equivalent to relative amounts in 6 oz/acre PGR solution; two treatments; 15 plants. On the procedure:
In this portion of the experiment radish plants were treated twice at four day intervals. Plants were treated first on emergence, and again four (4) days later. Measurements were taken one week after the last treatment. Treatments are equivalent to 6 oz/acre, 12 oz/acre, and 24 oz/acre of PGR solution, while the IAA and kinetin treatments are equivalent to the relative amounts in the 6 oz/acre rate of PGR solution. […] The results of these experiments are tabulated in Table II and illustrated in FIG. 5.

The test system of another assay is Tomato variety TSH04. Put plainly: Effects of PGRs on tomato fruit weight (greenhouse). The conditions noted are these: one truss per plant; 112 days after planting; PGR 6 oz/acre, IAA/kinetin 0.42 or 0.11 micrograms; soil or foliar not told apart. On the procedure: In this experiment, the effects of PGRs on tomato yield were determined. Tomato variety TSH04, which is a processing tomato, was used. All plants were grown in five gallon pots in a greenhouse. Eight plants were used for each treatment. Application of the treatments was done aerially to eight plants and in the soil for eight plants to allow comparison of soil versus foliar application of the PGRs. Treatments were 6 oz/acre PGR solution. The treating solutions were prepared by diluting 0.0042 ml of concentrated solution into 100 ml water for application to the soil, or into 50 ml water for foliar application. The IAA solution was prepared by diluting 0.42 micrograms of IAA into 100 ml water for application to the soil, or into 50 ml water for foliar application. The cytokinin solution was prepared by diluting 0.42 micrograms of kinetin into 100 ml water for application to the soil, or into 50 ml water for spraying of the foliage. The solution containing both IAA and kinetin at a 1:1 ratio was prepared by diluting 0.42 micrograms of IAA and 0.42 micrograms of kinetin into 100 ml water for application to the soil, or into 50 ml water for foliar application. A solution containing both IAA and kinetin at a 4:1 ratio was prepared by diluting 0.42 micrograms of IAA and 0.11 micrograms of kinetin into 100 ml water for soil application, or into 50 ml water for foliar application. Finally, a solution containing both IAA and kinetin at a 1:4 ratio was prepared by diluting 0.11 micrograms of IAA and 0.42 micrograms of kinetin into 100 ml water for soil application, or into 50 ml water for foliar application. Water was employed as a control. Plants were kept pruned to one fruiting truss per plant and the weight of the fruit from each plant was measured when most of the fruit had ripened (112 days after planting). FIGS. 6 and 7 illustrate the increased fruit weight achieved, respectively, for total and individual fruits with each treatment.

In assay [2] the test system is radish plants. The assay can be described thus: Effects of PGR on radish growth (soil applied). The conditions noted are these: soil applied at planting and weekly, PGR solution 12 oz/acre, IAA or kinetin 0.84 micrograms per square foot; for Average Leaf Length: largest leaf, 21 days after planting, ± SD of the mean; for Average Hypocotyl Length: measured 21 days after planting, ± standard deviation of the mean. How it is done:
In this experiment, the effects of PGRs on radish growth were observed. A total of eighty (80) plants were used for this experiment. Twenty (20) plants were treated with water as a control. Twenty (20) plants were treated with a PGR solution corresponding to a rate of 12 oz/acre. The PGR solution is an aqueous solution including 0.015% IAA, 0.005% IBA, 0.009% cytokinin and 0.005% gibberellic acid as active ingredients. […] A small measure, 0.0084 ml of this solution, was diluted into 100 ml of water and applied to the soil of a container having a surface area of about 1 square foot to correspond to an application rate of 12 oz/acre. Twenty (20) plants were treated with an auxin solution containing indole-3-acetic acid (IAA) at a rate of 0.84 micrograms in 100 ml water per square foot of surface area of the container. Finally, twenty (20) plants were treated with the cytokinin kinetin at a rate of 0.84 micrograms in 100 ml water per square foot of surface area of the container. Treatments were applied to soil at the time of planting and repeated every week thereafter. Length of the hypocotyl and largest leaf of each plant was measured 21 days after planting. The mean hypocotyl length and leaf length was calculated. Results are tabulated in Table I and illustrated in FIGS. 3 and 4.

In assay [3] the test system is National pickling cucumber. The assay can be described thus: Effects of PGRs on cucumber internode length, 21 days. The conditions noted are these: soil applied weekly, 21 days after planting; for Internode 1 length: first (bottom) internode, 6 oz/acre or 0.42 micrograms; for Internode 2 length: second (middle) internode; for Internode 3 length: third (top) internode. On the procedure:
In this experiment, the effect of PGRs on cucumber internode length was determined. The cucumber variety used was the National pickling cucumber distributed by NK Lawn & Garden Co. (Chattanooga, Tenn.). Eight plants were used per treatment. Treatments were applied to the soil of each five-gallon pot containing one plant per pot. Treatments were 6 oz/acre PGR solution. The final PGR solution was prepared by diluting 0.0042 ml of the concentrated solution into 100 ml water. The IAA solution was prepared by diluting 0.42 micrograms of IAA into 100 ml water. The cytokinin solution was prepared by diluting 0.42 micrograms of kinetin into 100 ml water. Finally, plants were treated with 6 oz/acre N-Large. The treating solution was prepared by diluting 0.0042 ml of the commercial solution into 100 ml water. N-Large is a formulation containing 4 percent gibberellin (GA3). Water was used as a control. Treatments were applied to the soil at the time of planting, and weekly thereafter. Twenty-one (21) days after planting, the internode length of the first (bottom), second (middle), and third (top) internodes were measured to the nearest millimeter. The average internode length for first, second, and third internodes was calculated for each treatment. Results are tabulated in Table IV and illustrated in FIG. 8.

Assay [4] has as its system National pickling cucumber. The assay can be described thus: Effects of PGRs on cucumber vines and fruit, 84 days. The settings on record: for Average Branch Number / Average Internode Number / Average Vine Length: 84 days after planting; for Average Internode Length: 84 days, vine length divided by internode number; for Average Cucumber Weight: harvested 84 days after planting.

Take `O=C(O)Cc1c[nH]c2ccccc12` [Auxin, indole-3-acetic acid]: the “Shoot Height Foliar Applied” value in the assay with radish plants [1] was 91.46 ± 4.20 mm. Besides, in the assay with Tomato variety TSH04, the “Average total fruit weight per plant” value is listed as 63.79 ± 7.59 grams and the “Average weight of each fruit” value is listed as 11.45 ± 1.99 grams. Besides, in the assay with radish plants [2], the “Average Leaf Length” value was 121.15 ± 5.20 mm and the “Average Hypocotyl Length” value is on record as 51.15 ± 2.64 mm. In assay [3], the “Internode 1 length” value stood at 115.88 ± 4.01 millimeters, the “Internode 2 length” value is reported as 25.38 ± 3.13 millimeters and the “Internode 3 length” value worked out at 4.50 ± 1.91 millimeters. Further, in assay [4], the “Average Branch Number” value is 7.25 ± 1.86, the “Average Internode Number” value is listed as 30.75 ± 1.96, the “Average Vine Length” value was 267.00 ± 5.70 mm and the “Average Internode Length” value is on record as 8.72 ± 0.87 mm. Also, the “Average Cucumber Weight” value in assay [4] worked out at 311.98 ± 9.17 gm.
In the case of `c1coc(CNc2ncnc3[nH]cnc23)c1` [Cytokinin, kinetin], in the assay on radish plants [1], the “Shoot Height Foliar Applied” value turned out to be 89.00 ± 4.55 mm. Moreover, in the assay with Tomato variety TSH04, the “Average total fruit weight per plant” value worked out at 89.08 ± 6.85 grams and the “Average weight of each fruit” value is given as 14.76 ± 2.47 grams. Besides, in the assay with radish plants [2], the “Average Leaf Length” value is 101.25 ± 4.46 mm and the “Average Hypocotyl Length” value amounted to 46.10 ± 3.10 mm. Further, in assay [3], the “Internode 1 length” value amounted to 106.38 ± 3.98 millimeters, the “Internode 2 length” value came to 20.25 ± 3.40 millimeters and the “Internode 3 length” value stood at 2.13 ± 1.25 millimeters. Besides, in assay [4], the “Average Branch Number” value was 6.25 ± 2.27, the “Average Internode Number” value was 30.50 ± 1.75, the “Average Vine Length” value is given as 255.50 ± 5.61 mm and the “Average Internode Length” value amounted to 8.37 ± 0.62 mm. For the same compound, the “Average Cucumber Weight” value in assay [4] is reported as 229.71 ± 1.33 gm.
